We go through two molecules from patent US20100062078A1, “PHARMACEUTICAL COMPOSITION FOR TREATING CANCER AND THE SIGNALING PATHWAY THEREOF” (priority 2008, published 2010).

Holding throughout (assay type): cell-based, human
For one test, the system named is LNCap. Kind of test: XTT cell proliferation assay (growth inhibition). Conditions: inhibitor pretreatment, then protoapigenone for 12 hours. Here is the method: (§1) Cells were seeded at 7×10^3 per well in 96-well culture plates before treatment with different concentrations of protoapigenone for 12, 24 and/or 48 hours. Next, the cytotoxicity of protoapigenone was determined using XTT cell proliferation assay (Sigma, St. Louis, Mo.). The absorbance of wavelength at 490 nm (OD490) and 650 nm (OD650) were determined respectively by enzyme-linked immunosorbent assay (ELISA) reader, and 50% of inhibitory concentration (IC50) was calculated by the value of OD490-OD650. In addition, in order to evaluate the long-term effect, the cells were treated with different concentration of protoapigenone for 3 hours, then were incubated with fresh medium for 14 days so as to form colonies. Finally, the cells were stained with crystal violet and were observed under the microscope.
(In general: Formazan colour is commonly taken as a measure of viable cells.)

The test system of test [1] is LNCap cells. Kind of test: Cell cycle analysis (PI flow cytometry). Conditions: inhibitor pretreatment. Here is the method: The ovarian cancer cells and the prostate cancer cells respectively were treated with protoapigenone at different concentrations (0, 2.5, 5 and 10 μM) for 24 hours and 6 hours (or 12 hours). These cells were harvested by trypsin and fixed with 70% ethanol for 1 hour, washed with phosphate buffered saline (PBS) twice, and resuspended in propidium iodide (PI)/RNase A solution for 30 minutes. In accordance with the mechanism of DNA stained with propidium iodide, the cell cycle and sub-G1 distribution were detected by the FACScan flow cytometry (Becton Dickinson, San Jose, Calif.), and data analysis was done with CellQuest software (BD Bioscience).

The next test concerns p38 MAPK. Kind of test: Immunoblotting, phosphorylation in LNCap cells. Particulars: LNCap pretreated 1 hour with inhibitor, then protoapigenone 1 hour. An excerpt:
The concentration of protein supernatant was further determined using the Bio-Rad protein assay kit (Bio-Rad Laboratories, Hercules, Calif.). Whole cell lysates were separated on polyacrylamide sodium dodecyl sulfate (SDS) gels and the proteins were transferred onto the nitrocellulose membrane. Proteins were detected sequentially by the specific primary antibodies, followed by peroxidase-conjugated secondary antibodies, and visualized by the Enhanced chemiluminescence detection system (Amersham, N.J.).
On the technique in general: In western blotting, separated proteins are transferred to a membrane and probed.

Test [2] has as its system LNCap cells. Kind of test: Protoapigenone-induced apoptosis with kinase inhibitor pretreatment. On the procedure:
Human prostate cancer cell line LNCap used in the present invention was purchased from ATCC, Manassas, Va. and was cultured in RPMI 1640 medium supplemented with 10% FBS and penicillin/streptomycin/amphotericin B. LNCap cells were treated with 2.5, 5 and 10 μM protoapigenone respectively and were analyzed. In some experiments, LNCap cells were treated with p38 mitogen-activated protein kinase (MAPK) inhibitor SB203580 or c-Jun NH2-terminal kinase (JNK) ½ inhibitor SP600125 for one hour before protoapigenone treatment.

The subject of the next test is MDAH-2774. Kind of test: XTT cell proliferation assay (cytotoxicity). On the procedure: as §1

SMILES strings stand for the structures.

For `C[S+]([O-])c1ccc(-c2nc(-c3ccncc3)c(-c3ccc(F)cc3)[nH]2)cc1` (stereo not drawn) [SB203580, reference compound], the “survival rate of LNCap cells vs cells only treated with protoapigenone” value in the test on LNCap is listed as “higher”. The “effect of inhibitor on protoapigenone-induced S and G2/M phases arrest” value in the test on LNCap cells [1] is “significantly attenuates”. In addition, the “protoapigenone-induced phosphorylation (activation) of p38 MAPK in presence of inhibitor” value in the test on p38 MAPK is “blocked”. The “protoapigenone-induced apoptotic percentage in presence of inhibitor” value in the test on LNCap cells [2] was “decreased”.

Regarding `N.N.[Cl][Pt][Cl]` [cisplatin, cis-diamminedichloridoplatinum (II), reference compound], the “inhibition of cell growth” value in the test with MDAH-2774 (MDAH-2774, 5 μM cisplatin) was found to be 28.48%; in the test with MDAH-2774 (MDAH-2774, 10 μM cisplatin), 36.91%.
